Test system: bacteria
Assay: bacteria growth within chambers of a bacteria culture array with or without ampicillin (FIG. 33)
Format: cell-based
Details: chambers that included ampicillin vs chambers without ampicillin; FIG. 33, graph 168
Excerpt: Furthermore, the bacteria culture arrays of the present disclosure may be used to assess the effect of drugs on bacteria samples. For instance, single cells of bacteria may be added the chambers of a bacteria culture array, and drugs and/or antimicrobial agents may be added to some or all of the chambers. In other words, single cell bacteria activity may be used to conduct population-based analysis of bacteria samples. With this in mind, FIG. 33 is a graph 168 showing bacteria growth within chambers of a bacteria culture array.
Visual confirmation of the results shown in the graph 168 were also obtained. FIG. 34 is images […] of the chambers of the bacteria culture array.

SMILES: CC1(C)S[C@@H]2[C@H](NC(=O)[C@H](N)c3ccccc3)C(=O)N2[C@H]1C(=O)O [ampicillin]
- bacteria growth within chambers of a bacteria culture array: hindrance to growth

Source: patent publication US10787695B2, “Systems and methods for rapidly sensing microbial metabolism” (General Electric Company, priority 2017, dated 2020)
